Measured values as given in ChEMBL document CHEMBL3885861, “Open TG-GATES”.

Species: Rattus norvegicus
Assay: Open TG-GATES - Regimen: Single
Format: toxicity, organism-based, Sprague-Dawley
Parameters: regimen Single, gender Male, age 6 weeks
Conditions: in vivo, ip, 100 mg/kg, route intraperitoneal injection, dose level Low; for APTT / Bas / Eos / Fbg / Hb / Ht / Lym / MCH / MCHC / MCV / Mono / Neu / PT / Plat / RBC / Ret / WBC: tissue Blood; for KIDNEY_L / KIDNEY_R / KIDNEY_TOTAL: tissue Kidney; for LIVER: tissue Liver; for A/G / ALP / ALT / AST / BUN / CRE / Ca / Cl / DBIL / GLC / IP / K / LDH / Na / PL / RALB / TBIL / TC / TG / TP / gamma-GTP: tissue Plasma

N[C@H]1C(O)O[C@H](CO)[C@@H](O)[C@@H]1O (some centres not stated) [GLUCOSAMINE]
TERMINAL_BW (3 h): 188.6 g | APTT (3 h): 16.4 s | Bas (3 h): 0.4% | Eos (3 h): 1% | Fbg (3 h): 267.2 mg/dL | Hb (3 h): 13.3 g/dL | Ht (3 h): 41.3% | Lym (3 h): 75% | MCH (3 h): 21.3 pg | MCHC (3 h): 32.1% | MCV (3 h): 66.4 fL | Mono (3 h): 3.2% | Neu (3 h): 19.6% | PT (3 h): 15.7 s | Plat (3 h): 114.1 x10_4/uL | RBC (3 h): 623.2 x10_4/ul | Ret (3 h): 9.9% | WBC (3 h): 83.2 x10_2/uL | KIDNEY_L (3 h): 0.8 g | KIDNEY_R (3 h): 0.8 g | KIDNEY_TOTAL (3 h): 1.6 g | LIVER (3 h): 8.3 g | A/G (3 h): 0.9 | ALP (3 h): 1288 IU/L | ALT (3 h): 42.2 IU/L | AST (3 h): 84.6 IU/L | BUN (3 h): 10.4 mg/dL | CRE (3 h): 0.2 mg/dL | Ca (3 h): 10.6 mg/dL | Cl (3 h): 108.4 meq/L | DBIL (3 h): 0.01 mg/dL | GLC (3 h): 171.6 mg/dL | IP (3 h): 9.2 mg/dL | K (3 h): 4 meq/L | LDH (3 h): 70 IU/L | Na (3 h): 143.4 meq/L | PL (3 h): 147.8 mg/dL | RALB (3 h): 2.5 g/dL | TBIL (3 h): 0.054 mg/dL | TC (3 h): 80.8 mg/dL | TG (3 h): 36.8 mg/dL | TP (3 h): 5.2 g/dL | gamma-GTP (3 h): 1 IU/L | TERMINAL_BW (6 h): 186.1 g | APTT (6 h): 17.1 s | Bas (6 h): 0% | Eos (6 h): 0.8% | Fbg (6 h): 259.4 mg/dL | Hb (6 h): 12.8 g/dL | Ht (6 h): 39.3% | Lym (6 h): 67% | MCH (6 h): 21.5 pg | MCHC (6 h): 32.7% | MCV (6 h): 65.9 fL | Mono (6 h): 3.6% | Neu (6 h): 27.6% | PT (6 h): 16.9 s | Plat (6 h): 114.6 x10_4/uL | RBC (6 h): 596 x10_4/ul | Ret (6 h): 9.9% | WBC (6 h): 82.3 x10_2/uL | KIDNEY_L (6 h): 0.8 g | KIDNEY_R (6 h): 0.8 g | KIDNEY_TOTAL (6 h): 1.7 g | LIVER (6 h): 7.7 g | A/G (6 h): 0.9 | ALP (6 h): 1431.6 IU/L | ALT (6 h): 49.6 IU/L | AST (6 h): 94.2 IU/L | BUN (6 h): 8.8 mg/dL | CRE (6 h): 0.2 mg/dL | Ca (6 h): 10.1 mg/dL | Cl (6 h): 107.8 meq/L | DBIL (6 h): 0.006 mg/dL | GLC (6 h): 158 mg/dL | IP (6 h): 9.5 mg/dL | K (6 h): 3.9 meq/L | LDH (6 h): 58.6 IU/L | Na (6 h): 143.2 meq/L | PL (6 h): 144.2 mg/dL | RALB (6 h): 2.4 g/dL | TBIL (6 h): 0.054 mg/dL | TC (6 h): 80.2 mg/dL | TG (6 h): 40.2 mg/dL | TP (6 h): 5.1 g/dL | gamma-GTP (6 h): 1 IU/L | TERMINAL_BW (9 h): 185.8 g | APTT (9 h): 18.8 s | Bas (9 h): 0% | Eos (9 h): 0.8% | Fbg (9 h): 289.4 mg/dL | Hb (9 h): 12.9 g/dL | Ht (9 h): 39.8% | Lym (9 h): 68.4% | MCH (9 h): 21 pg | MCHC (9 h): 32.3% | MCV (9 h): 64.8 fL | Mono (9 h): 1.8% | Neu (9 h): 28.4% | PT (9 h): 16.1 s | Plat (9 h): 104 x10_4/uL | RBC (9 h): 614.4 x10_4/ul | Ret (9 h): 9.1% | WBC (9 h): 60.7 x10_2/uL | KIDNEY_L (9 h): 0.8 g | KIDNEY_R (9 h): 0.8 g | KIDNEY_TOTAL (9 h): 1.7 g | LIVER (9 h): 7.4 g | A/G (9 h): 0.9 | ALP (9 h): 1454.4 IU/L | ALT (9 h): 39 IU/L | AST (9 h): 83.4 IU/L | BUN (9 h): 8 mg/dL | CRE (9 h): 0.2 mg/dL | Ca (9 h): 10.4 mg/dL | Cl (9 h): 107 meq/L | DBIL (9 h): 0.008 mg/dL | GLC (9 h): 180 mg/dL | IP (9 h): 10.4 mg/dL | K (9 h): 3.6 meq/L | LDH (9 h): 54.8 IU/L | Na (9 h): 144 meq/L | PL (9 h): 142.2 mg/dL | RALB (9 h): 2.5 g/dL | TBIL (9 h): 0.056 mg/dL | TC (9 h): 78.8 mg/dL | TG (9 h): 35.6 mg/dL | TP (9 h): 5.3 g/dL | gamma-GTP (9 h): 1 IU/L | TERMINAL_BW (24 h): 202.9 g | APTT (24 h): 18.1 s | Bas (24 h): 0.2% | Eos (24 h): 1.6% | Fbg (24 h): 253.2 mg/dL | Hb (24 h): 12.8 g/dL | Ht (24 h): 39.2% | Lym (24 h): 69.2% | MCH (24 h): 20.8 pg | MCHC (24 h): 32.7% | MCV (24 h): 63.6 fL | Mono (24 h): 3% | Neu (24 h): 25.2% | PT (24 h): 16.2 s | Plat (24 h): 105.9 x10_4/uL | RBC (24 h): 616.8 x10_4/ul | Ret (24 h): 8.6% | WBC (24 h): 93.3 x10_2/uL | KIDNEY_L (24 h): 0.9 g | KIDNEY_R (24 h): 0.9 g | KIDNEY_TOTAL (24 h): 1.7 g | LIVER (24 h): 9 g | A/G (24 h): 0.9 | ALP (24 h): 1735.2 IU/L | ALT (24 h): 51.8 IU/L | AST (24 h): 81.4 IU/L | BUN (24 h): 14.2 mg/dL | CRE (24 h): 0.2 mg/dL | Ca (24 h): 10.6 mg/dL | Cl (24 h): 107.4 meq/L | DBIL (24 h): 0.014 mg/dL | GLC (24 h): 181.6 mg/dL | IP (24 h): 8.5 mg/dL | K (24 h): 4.2 meq/L | LDH (24 h): 134.8 IU/L | Na (24 h): 143.8 meq/L | PL (24 h): 160.4 mg/dL | RALB (24 h): 2.6 g/dL | TBIL (24 h): 0.036 mg/dL | TC (24 h): 83.4 mg/dL | TG (24 h): 76.6 mg/dL | TP (24 h): 5.6 g/dL | gamma-GTP (24 h): 1 IU/L
